Measurements from patent publication US9416126B2, “Compounds inhibiting leucine-rich repeat kinase enzyme activity” (Merck Sharp & Dohme Corp., priority 2013, dated 2016).

biological target: LRRK2(G2019S mutation, GST-LRRK2(amino acids 970-2527)) (Homo sapiens (Human), UniProt Q5S007, G2019S); test: LRRK2 Km ATP LanthaScreen Assay; format: biochemical; settings: Examples O1-O23
How it was run: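 TR-FRET: GST-LRRK2 970-2527 G2019S (2.5 nM solution) preincubated 30 min with compound (98 μM top, 1:2.15 dilutions), then 800 nM fluorescein-LRRKtide and 184 μM ATP solution added for 60 min at room temperature in Tris pH 8.5 buffer. Stopped with EDTA and Tb anti-phospho-LRRKtide antibody; IC50 is a mean of several tests.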

Sequence of LRRK2(G2019S mutation, GST-LRRK2(amino acids 970-2527)) (Q5S007 970-2527 G2019S): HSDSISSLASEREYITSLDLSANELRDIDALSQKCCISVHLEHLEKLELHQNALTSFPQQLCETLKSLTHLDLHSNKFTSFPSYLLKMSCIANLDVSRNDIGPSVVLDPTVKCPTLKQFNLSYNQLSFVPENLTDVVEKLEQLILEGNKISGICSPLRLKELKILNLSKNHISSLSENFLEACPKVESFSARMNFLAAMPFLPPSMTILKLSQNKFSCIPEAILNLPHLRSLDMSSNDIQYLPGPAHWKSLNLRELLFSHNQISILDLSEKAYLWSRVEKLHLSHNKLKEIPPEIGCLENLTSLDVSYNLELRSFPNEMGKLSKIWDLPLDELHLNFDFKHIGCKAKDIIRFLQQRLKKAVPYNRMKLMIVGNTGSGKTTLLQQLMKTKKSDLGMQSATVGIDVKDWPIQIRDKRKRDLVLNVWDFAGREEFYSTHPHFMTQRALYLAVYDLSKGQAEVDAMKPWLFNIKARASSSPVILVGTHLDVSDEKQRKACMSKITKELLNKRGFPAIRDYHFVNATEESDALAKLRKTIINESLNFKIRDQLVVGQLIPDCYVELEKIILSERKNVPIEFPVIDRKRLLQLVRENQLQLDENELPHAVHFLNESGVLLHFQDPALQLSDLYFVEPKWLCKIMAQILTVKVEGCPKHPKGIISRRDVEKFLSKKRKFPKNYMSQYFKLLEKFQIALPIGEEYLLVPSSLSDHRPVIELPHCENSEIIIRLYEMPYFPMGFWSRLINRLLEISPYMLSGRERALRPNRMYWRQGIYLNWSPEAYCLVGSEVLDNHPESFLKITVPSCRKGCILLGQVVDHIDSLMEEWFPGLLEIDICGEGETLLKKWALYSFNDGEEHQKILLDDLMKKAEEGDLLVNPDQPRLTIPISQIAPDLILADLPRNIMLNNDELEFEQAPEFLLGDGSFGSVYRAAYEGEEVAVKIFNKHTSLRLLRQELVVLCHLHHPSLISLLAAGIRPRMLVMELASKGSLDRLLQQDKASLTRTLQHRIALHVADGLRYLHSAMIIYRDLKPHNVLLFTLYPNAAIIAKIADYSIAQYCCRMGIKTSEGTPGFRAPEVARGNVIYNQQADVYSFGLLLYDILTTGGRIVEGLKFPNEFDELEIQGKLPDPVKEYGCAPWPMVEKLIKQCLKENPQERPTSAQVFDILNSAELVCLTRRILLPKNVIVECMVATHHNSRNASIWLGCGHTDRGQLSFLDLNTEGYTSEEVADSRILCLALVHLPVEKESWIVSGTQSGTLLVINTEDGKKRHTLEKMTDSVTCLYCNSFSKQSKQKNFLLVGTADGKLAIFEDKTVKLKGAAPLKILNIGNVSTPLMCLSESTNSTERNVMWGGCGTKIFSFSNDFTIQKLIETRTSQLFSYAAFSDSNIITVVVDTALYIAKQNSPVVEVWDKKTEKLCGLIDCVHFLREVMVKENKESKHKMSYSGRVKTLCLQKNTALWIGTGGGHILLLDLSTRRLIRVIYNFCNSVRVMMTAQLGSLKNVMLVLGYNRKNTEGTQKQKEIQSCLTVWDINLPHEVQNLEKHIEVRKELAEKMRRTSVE

Row | Compound | IC50 [µM]
1 | COC[C@H](C)Oc1ccc2[nH]nc(-c3cc(N4CCOC[C@@H]4C)ncn3)c2c1 [Example O16] | 0.006
2 | COC[C@H](C)Oc1ccc2[nH]nc(-c3cc(N4CCc5oc(C)nc5C4)ncn3)c2c1 [Example O17] | 0.0084
3 | COC[C@H](C)Oc1ccc2[nH]nc(-c3cc(N4CCOC(C)(C)C4)ncn3)c2c1 [Example O18] | 0.0053
4 | COC[C@H](C)Oc1ccc2[nH]nc(-c3cc(N4CCC(F)(F)CC4)ncn3)c2c1 [Example O19] | 0.008
5 | COC[C@H](C)Oc1ccc2[nH]nc(-c3cc(N4CCN5C(=O)OCC5C4)ncn3)c2c1 (stereo partly shown) [Example O20] | 0.0088
6 | COC[C@H](C)Oc1ccc2[nH]nc(-c3cc(N4C[C@H](OC)[C@@H](O)C4)ncn3)c2c1 [Example O21] | 0.0198
7 | COC[C@H](C)Oc1ccc2[nH]nc(-c3cc(N4C[C@H](O)[C@@H](N(C)C)C4)ncn3)c2c1 [Example O22] | 0.0066
8 | COC[C@H](C)Oc1ccc2[nH]nc(-c3cc(N4CCC5(CC4)CNC(=O)CO5)ncn3)c2c1 [Example O23] | 0.0035

same assay, conditions: Examples P1-P18

Row | Compound | IC50 [µM]
9 | N#Cc1cc(-c2ccc3[nH]nc(-c4cc(N5CCOCC5)ncn4)c3c2)ccn1 [Example P1] | 0.34
10 | c1nc(-c2n[nH]c3ccc(-c4ccc5ncnn5c4)cc23)cc(N2CCOCC2)n1 [Example P2] | 0.193
11 | c1cc(-c2ccc3[nH]nc(-c4cc(N5CCOCC5)ncn4)c3c2)ccn1 [Example P3] | 0.0967
12 | Cc1noc(C)c1-c1ccc2[nH]nc(-c3cc(N4CCOCC4)ncn3)c2c1 [Example P4] | 0.0487
13 | c1ncc(-c2ccc3[nH]nc(-c4cc(N5CCOCC5)ncn4)c3c2)cn1 [Example P5] | 0.0407
14 | N#Cc1ccc(-c2ccc3[nH]nc(-c4cc(N5CCOCC5)ncn4)c3c2)cc1 [Example P6] | 0.15
15 | N#Cc1cccc(-c2ccc3[nH]nc(-c4cc(N5CCOCC5)ncn4)c3c2)c1 [Example P7] | 0.0813
16 | CCN(CC)C(=O)c1ccc(-c2ccc3[nH]nc(-c4cc(N5CCOCC5)ncn4)c3c2)cc1 [Example P8] | 0.608
17 | O=S(=O)(c1ccc(-c2ccc3[nH]nc(-c4cc(N5CCOCC5)ncn4)c3c2)cc1)N1CCCC1 [Example P9] | 0.914
18 | COc1cnc(-c2ccc3[nH]nc(-c4cc(N5CCOCC5)ncn4)c3c2)cn1 [Example P10] | 0.272
19 | COc1cncc(-c2ccc3[nH]nc(-c4cc(N5CCOCC5)ncn4)c3c2)n1 [Example P11] | 0.0183
20 | c1nc(-c2n[nH]c3ccc(-c4ccc5nncn5c4)cc23)cc(N2CCOCC2)n1 [Example P12] | 0.0561
21 | Cn1nccc1-c1ccc2[nH]nc(-c3cc(N4CCOCC4)ncn3)c2c1 [Example P13] | 0.0457
22 | COc1ncccc1-c1ccc2[nH]nc(-c3cc(N4CCOCC4)ncn3)c2c1 [Example P14] | 0.0377
23 | Cc1nocc1-c1ccc2[nH]nc(-c3cc(N4CCOCC4)ncn3)c2c1 [Example P15] | 0.059
24 | COCCn1cc(-c2ccc3[nH]nc(-c4cc(N5CCOCC5)ncn4)c3c2)cn1 [Example P16] | 0.0015
25 | COc1ccc(-c2ccc3[nH]nc(-c4cc(N5CCOCC5)ncn4)c3c2)cn1 [Example P17] | 0.0312
26 | O=C(NCCO)c1ccc(-c2ccc3[nH]nc(-c4cc(N5CCOCC5)ncn4)c3c2)cc1 [Example P18] | 0.154

same assay, conditions: Examples Q1-Q20

Row | Compound | IC50 [µM]
27 | C[C@@H]1CN(c2cc(-c3n[nH]c4ccc(-c5ccc6ncnn6c5)cc34)ncn2)C[C@H](C)O1 [Example Q1] | 0.24
28 | COc1ncccc1-c1ccc2[nH]nc(-c3cc(N4C[C@@H](C)O[C@@H](C)C4)ncn3)c2c1 [Example Q2] | 0.159
29 | C[C@@H]1CN(c2cc(-c3n[nH]c4ccc(-c5ccnn5C)cc34)ncn2)C[C@H](C)O1 [Example Q3] | 0.0321
30 | Cc1cncc(-c2ccc3[nH]nc(-c4cc(N5C[C@@H](C)O[C@@H](C)C5)ncn4)c3c2)c1 [Example Q4] | 0.0022
31 | Cc1nocc1-c1ccc2[nH]nc(-c3cc(N4C[C@@H](C)O[C@@H](C)C4)ncn3)c2c1 [Example Q5] | 0.04
32 | C[C@@H]1CN(c2cc(-c3n[nH]c4ccc(-c5ccncc5)cc34)ncn2)C[C@H](C)O1 [Example Q6] | 0.0495
33 | COc1cnc(-c2ccc3[nH]nc(-c4cc(N5C[C@@H](C)O[C@@H](C)C5)ncn4)c3c2)cn1 [Example Q7] | 0.0634
34 | C[C@@H]1CN(c2cc(-c3n[nH]c4ccc(-c5cncnc5)cc34)ncn2)C[C@H](C)O1 [Example Q8] | 0.0303
35 | COc1ccc(-c2ccc3[nH]nc(-c4cc(N5C[C@@H](C)O[C@@H](C)C5)ncn4)c3c2)cn1 [Example Q9] | 0.0411
36 | COc1cncc(-c2ccc3[nH]nc(-c4cc(N5C[C@@H](C)O[C@@H](C)C5)ncn4)c3c2)n1 [Example Q10] | 0.0024
37 | C[C@@H]1CN(c2cc(-c3n[nH]c4ccc(-c5ccnc(C#N)c5)cc34)ncn2)C[C@H](C)O1 [Example Q11] | 0.172
38 | Cc1ncc(-c2ccc3[nH]nc(-c4cc(N5C[C@@H](C)O[C@@H](C)C5)ncn4)c3c2)nc1C [Example Q12] | 0.0174
39 | C[C@@H]1CN(c2cc(-c3n[nH]c4ccc(-c5cnc(N6CCCC6)s5)cc34)ncn2)C[C@H](C)O1 [Example Q13] | 0.0076
40 | COCCn1cc(-c2ccc3[nH]nc(-c4cc(N5C[C@@H](C)O[C@@H](C)C5)ncn4)c3c2)cn1 [Example Q14] | 0.0018
41 | COc1cc(-c2ccc3[nH]nc(-c4cc(N5C[C@@H](C)O[C@@H](C)C5)ncn4)c3c2)ccn1 [Example Q15] | 0.155
42 | C[C@@H]1CN(c2cc(-c3n[nH]c4ccc(-c5ccc6nncn6c5)cc34)ncn2)C[C@H](C)O1 [Example Q16] | 0.0606
43 | C[C@@H]1CN(c2cc(-c3n[nH]c4ccc(-c5ccc(C(=O)NCCO)cc5)cc34)ncn2)C[C@H](C)O1 [Example Q17] | 0.077
44 | C[C@@H]1CN(c2cc(-c3n[nH]c4ccc(-c5ccc(C#N)cc5)cc34)ncn2)C[C@H](C)O1 [Example Q18] | 0.177
45 | C[C@@H]1CN(c2cc(-c3n[nH]c4ccc(-c5cccc(C#N)c5)cc34)ncn2)C[C@H](C)O1 [Example Q19] | 0.0479
46 | CCN(CC)C(=O)c1ccc(-c2ccc3[nH]nc(-c4cc(N5C[C@@H](C)O[C@@H](C)C5)ncn4)c3c2)cc1 [Example Q20] | 0.847

same assay, conditions: Km ATP (184 μM ATP solution), G2019S LRRK2, mean IC50

Row | Compound | IC50 [µM]
47 | CC(C)=Cc1ccc2[nH]nc(-c3cc(N4CCO[C@H](C)C4)ncn3)c2c1 [Example S1] | 0.0164
48 | CC(C)=Cc1ccc2[nH]nc(-c3cc(N4CCN(S(C)(=O)=O)CC4)ncn3)c2c1 [Example S2] | 0.0288
49 | CC(C)=Cc1ccc2[nH]nc(-c3cc(N4CCN(C)CC4)ncn3)c2c1 [Example S3] | 0.0329
50 | CC(C)=Cc1ccc2[nH]nc(-c3cc(N4CCN(C)C(=O)C4)ncn3)c2c1 [Example S4] | 0.0362
51 | CC(C)=Cc1ccc2[nH]nc(-c3cc(N4C[C@@H](C)O[C@@H](C)C4)ncn3)c2c1 [Example S5] | 0.0203
52 | c1cncc(-c2ccc3[nH]nc(-c4cc(N5CCOCC5)ncn4)c3c2)c1 [Example T1] | 0.0055
53 | CS(=O)(=O)N1CCN(c2cc(-c3n[nH]c4ccc(-c5cccnc5)cc34)ncn2)CC1 [Example T2] | 0.0073

same assay, conditions: Table U

Row | Compound | IC50 [µM]
54 | FC1(F)CCN(c2cc(-c3n[nH]c4ccc(-c5ccoc5)cc34)ncn2)CC1 [Example U1] | 0.0862
55 | FC1(F)CCN(c2cc(-c3n[nH]c4ccc(-c5ccsc5)cc34)ncn2)CC1 [Example U2] | 0.348
56 | FC1(F)CCN(c2cc(-c3n[nH]c4ccc(C5=CCNCC5)cc34)ncn2)CC1 [Example U3] | 0.12
57 | COc1ccncc1-c1ccc2[nH]nc(-c3cc(N4CCC(F)(F)CC4)ncn3)c2c1 [Example U4] | 0.00666
58 | CC1(C)CC(=O)C=C(c2ccc3[nH]nc(-c4cc(N5CCC(F)(F)CC5)ncn4)c3c2)C1 [Example U5] | 0.00708
59 | FC1(F)CCN(c2cc(-c3n[nH]c4ccc(-c5cc[nH]n5)cc34)ncn2)CC1 [Example U6] | 0.00216
60 | FC1(F)CCN(c2cc(-c3n[nH]c4ccc(-c5cn[nH]c5)cc34)ncn2)CC1 [Example U7] | 0.00569
61 | c1nc(-c2n[nH]c3ccc(-c4ccoc4)cc23)cc(N2CCOCC2)n1 [Example U8] | 0.019
62 | c1nc(-c2n[nH]c3ccc(-c4ccsc4)cc23)cc(N2CCOCC2)n1 [Example U9] | 0.0364
63 | Cc1ncc(-c2ccc3[nH]nc(-c4cc(N5CCOCC5)ncn4)c3c2)s1 [Example U10] | 0.0022
64 | CC1(C)CC(=O)C=C(c2ccc3[nH]nc(-c4cc(N5CCOCC5)ncn4)c3c2)C1 [Example U11] | 0.00163
65 | C1=C(c2ccc3[nH]nc(-c4cc(N5CCOCC5)ncn4)c3c2)CCNC1 [Example U12] | 0.0716
66 | COc1ccncc1-c1ccc2[nH]nc(-c3cc(N4CCOCC4)ncn3)c2c1 [Example U13] | 0.00172
67 | c1cc(-c2ccc3[nH]nc(-c4cc(N5CCOCC5)ncn4)c3c2)[nH]n1 [Example U14] | 0.00263
68 | Cc1ccc(-c2ccc3[nH]nc(-c4cc(N5CCOCC5)ncn4)c3c2)cc1 [Example U15] | 0.251
69 | c1nc(-c2n[nH]c3ccc(-c4cn[nH]c4)cc23)cc(N2CCOCC2)n1 [Example U16] | 0.0023
70 | O=C1C=C(c2ccc3[nH]nc(-c4cc(N5CCOCC5)ncn4)c3c2)CCC1 [Example U17] | 0.00163
71 | Clc1cc(-c2ccc3[nH]nc(-c4cc(N5CCOCC5)ncn4)c3c2)ccn1 [Example U18] | 0.267
72 | Cc1n[nH]c(C)c1-c1ccc2[nH]nc(-c3cc(N4CCOCC4)ncn3)c2c1 [Example U19] | 0.00258
73 | CC(C)N1CCN(c2cc(-c3n[nH]c4ccc(-c5cccs5)cc34)ncn2)CC1 [Example U21] | 0.0615
74 | CC(C)N1CCN(c2cc(-c3n[nH]c4ccc(-c5ccoc5)cc34)ncn2)CC1 [Example U22] | 0.00903
75 | COc1ccncc1-c1ccc2[nH]nc(-c3cc(N4CCN(C(C)C)CC4)ncn3)c2c1 [Example U23] | 0.00126
76 | CC(C)N1CCN(c2cc(-c3n[nH]c4ccc(-c5cn[nH]c5)cc34)ncn2)CC1 [Example U24] | 0.00096
